In PubChem BioAssay (NCI):
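Following 48 hours of exposure in 96-well plates, responses at five concentrations were used to interpolate endpoints linearly. TGI denotes the concentration required for complete inhibition of growth.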

Assays:
Test in all cases: inhibition of tumour cell growth, NCI panel, 48 h
UACC-62 melanoma = test system: UACC-62 melanoma
MALME-3M melanoma = test system: MALME-3M melanoma
HCC-2998 colon = test system: HCC-2998 colon
T-47D breast = test system: T-47D breast
SK-OV-3 ovarian = test system: SK-OV-3 ovarian
786-0 renal = test system: 786-0 renal
CAKI-1 renal = test system: CAKI-1 renal
ACHN renal = test system: ACHN renal
SK-MEL-2 melanoma = test system: SK-MEL-2 melanoma
PC-3 prostate = test system: PC-3 prostate
UACC-257 melanoma = test system: UACC-257 melanoma
HT29 colon = test system: HT29 colon
HCT-116 colon = test system: HCT-116 colon
CCRF-CEM leukemia = test system: CCRF-CEM leukemia
HOP-92 NSCLC = test system: HOP-92 NSCLC
MDA-MB-231 breast = test system: MDA-MB-231 breast
NCI-H460 lung = test system: NCI-H460 lung
UO-31 renal = test system: UO-31 renal
NCI-H226 lung = test system: NCI-H226 lung
SK-MEL-28 melanoma = test system: SK-MEL-28 melanoma
LOX IMVI melanoma = test system: LOX IMVI melanoma
SF-539 CNS = test system: SF-539 CNS
U251 CNS = test system: U251 CNS
OVCAR-8 ovarian = test system: OVCAR-8 ovarian
SR leukemia = test system: SR leukemia
RXF 393 renal = test system: RXF 393 renal
NCI/ADR-RES ovarian = test system: NCI/ADR-RES ovarian
MDA-MB-435 = test system: MDA-MB-435
IGROV1 ovarian = test system: IGROV1 ovarian
HOP-62 NSCLC = test system: HOP-62 NSCLC
SNB-19 CNS = test system: SNB-19 CNS
MOLT-4 leukemia = test system: MOLT-4 leukemia
RPMI-8226 leukemia = test system: RPMI-8226 leukemia
SN12C renal = test system: SN12C renal
MDA-N = test system: MDA-N
SK-MEL-5 melanoma = test system: SK-MEL-5 melanoma
HL-60(TB) leukemia = test system: HL-60(TB) leukemia
EKVX NSCLC = test system: EKVX NSCLC
COLO 205 colon = test system: COLO 205 colon
SF-295 CNS = test system: SF-295 CNS
OVCAR-4 ovarian = test system: OVCAR-4 ovarian
SF-268 CNS = test system: SF-268 CNS
HS 578T breast = test system: HS 578T breast
K-562 leukemia = test system: K-562 leukemia
KM12 colon = test system: KM12 colon
SNB-75 CNS = test system: SNB-75 CNS
HCT-15 colon = test system: HCT-15 colon
NCI-H23 lung = test system: NCI-H23 lung
DU-145 prostate = test system: DU-145 prostate
A549 NSCLC = test system: A549 NSCLC
M14 melanoma = test system: M14 melanoma
TK-10 renal = test system: TK-10 renal
MCF7 breast = test system: MCF7 breast
OVCAR-3 ovarian = test system: OVCAR-3 ovarian
SW-620 colon = test system: SW-620 colon
BT-549 breast = test system: BT-549 breast
NCI-H522 lung = test system: NCI-H522 lung
OVCAR-5 ovarian = test system: OVCAR-5 ovarian
A498 renal = test system: A498 renal

c1coc(C2=Nc3cccc4cccc(c34)N2)c1
TGI (UACC-62 melanoma): > 100 µM
TGI (MALME-3M melanoma): > 100 µM
TGI (HCC-2998 colon): > 100 µM
TGI (T-47D breast): 23 µM
TGI (SK-OV-3 ovarian): > 100 µM
TGI (786-0 renal): > 100 µM
TGI (CAKI-1 renal): > 100 µM
TGI (ACHN renal): 57.6 µM
TGI (SK-MEL-2 melanoma): > 100 µM
TGI (PC-3 prostate): 80.8 µM
TGI (UACC-257 melanoma): > 100 µM
TGI (HT29 colon): 57.3 µM
TGI (HCT-116 colon): 56.3 µM
TGI (CCRF-CEM leukemia): > 100 µM
TGI (HOP-92 NSCLC): 60.5 µM
TGI (MDA-MB-231 breast): > 100 µM
TGI (NCI-H460 lung): > 100 µM
TGI (UO-31 renal): 64.7 µM
TGI (NCI-H226 lung): > 100 µM
TGI (SK-MEL-28 melanoma): > 100 µM
TGI (LOX IMVI melanoma): > 100 µM
TGI (SF-539 CNS): 39.3 µM
TGI (U251 CNS): > 100 µM
TGI (OVCAR-8 ovarian): > 100 µM
TGI (SR leukemia): > 100 µM
TGI (RXF 393 renal): 76.9 µM
TGI (NCI/ADR-RES ovarian): 44.4 µM
TGI (MDA-MB-435): > 100 µM
TGI (IGROV1 ovarian): > 100 µM
TGI (HOP-62 NSCLC): > 100 µM
TGI (SNB-19 CNS): > 100 µM
TGI (MOLT-4 leukemia): > 100 µM
TGI (RPMI-8226 leukemia): > 100 µM
TGI (SN12C renal): > 100 µM
TGI (MDA-N): > 100 µM
TGI (SK-MEL-5 melanoma): > 100 µM
TGI (HL-60(TB) leukemia): 65.4 µM
TGI (EKVX NSCLC): > 100 µM
TGI (COLO 205 colon): 28 µM
TGI (SF-295 CNS): > 100 µM
TGI (OVCAR-4 ovarian): 84.9 µM
TGI (SF-268 CNS): > 100 µM
TGI (HS 578T breast): > 100 µM
TGI (K-562 leukemia): > 100 µM
TGI (KM12 colon): 40.8 µM
TGI (SNB-75 CNS): > 100 µM
TGI (HCT-15 colon): > 100 µM
TGI (NCI-H23 lung): > 100 µM
TGI (DU-145 prostate): > 100 µM
TGI (A549 NSCLC): > 100 µM
TGI (M14 melanoma): > 100 µM
TGI (TK-10 renal): > 100 µM
TGI (MCF7 breast): > 100 µM
TGI (OVCAR-3 ovarian): 65.4 µM
TGI (SW-620 colon): > 100 µM
TGI (BT-549 breast): > 100 µM
TGI (NCI-H522 lung): 23.2 µM

CC1=CC(C)(C)[C@H]2O[C@@]3(O)C[C@]4(C)[C@H]5C[C@@](C(C)C)(O[C@H]4c4ccoc4)O[C@H]4[C@]5(C3)O[C@@]1(O)[C@]24O
TGI (UACC-62 melanoma): > 100 µM
TGI (MALME-3M melanoma): > 100 µM
TGI (HCC-2998 colon): > 100 µM
TGI (T-47D breast): > 100 µM
TGI (SK-OV-3 ovarian): > 100 µM
TGI (786-0 renal): > 100 µM
TGI (CAKI-1 renal): > 100 µM
TGI (ACHN renal): > 100 µM
TGI (SK-MEL-2 melanoma): > 100 µM
TGI (PC-3 prostate): > 100 µM
TGI (UACC-257 melanoma): > 100 µM
TGI (HT29 colon): > 100 µM
TGI (HCT-116 colon): > 100 µM
TGI (OVCAR-5 ovarian): > 100 µM
TGI (CCRF-CEM leukemia): > 100 µM
TGI (HOP-92 NSCLC): > 100 µM
TGI (MDA-MB-231 breast): > 100 µM
TGI (UO-31 renal): > 100 µM
TGI (NCI-H226 lung): > 100 µM
TGI (SK-MEL-28 melanoma): > 100 µM
TGI (LOX IMVI melanoma): > 100 µM
TGI (SF-539 CNS): > 100 µM
TGI (U251 CNS): > 100 µM
TGI (OVCAR-8 ovarian): > 100 µM
TGI (SR leukemia): > 100 µM
TGI (RXF 393 renal): > 100 µM
TGI (NCI/ADR-RES ovarian): > 100 µM
TGI (MDA-MB-435): > 100 µM
TGI (IGROV1 ovarian): > 100 µM
TGI (HOP-62 NSCLC): 82 µM
TGI (SNB-19 CNS): > 100 µM
TGI (MOLT-4 leukemia): > 100 µM
TGI (RPMI-8226 leukemia): > 100 µM
TGI (SN12C renal): > 100 µM
TGI (MDA-N): > 100 µM
TGI (SK-MEL-5 melanoma): > 100 µM
TGI (HL-60(TB) leukemia): > 100 µM
TGI (EKVX NSCLC): > 100 µM
TGI (COLO 205 colon): > 100 µM
TGI (SF-295 CNS): > 100 µM
TGI (OVCAR-4 ovarian): > 100 µM
TGI (SF-268 CNS): > 100 µM
TGI (HS 578T breast): > 100 µM
TGI (K-562 leukemia): > 100 µM
TGI (KM12 colon): > 100 µM
TGI (SNB-75 CNS): 64.6 µM
TGI (HCT-15 colon): > 100 µM
TGI (NCI-H23 lung): > 100 µM
TGI (DU-145 prostate): > 100 µM
TGI (A549 NSCLC): > 100 µM
TGI (M14 melanoma): > 100 µM
TGI (TK-10 renal): > 100 µM
TGI (MCF7 breast): > 100 µM
TGI (OVCAR-3 ovarian): > 100 µM
TGI (SW-620 colon): > 100 µM
TGI (BT-549 breast): > 100 µM
TGI (NCI-H522 lung): 45.8 µM

C=CCN1CCN([C@H](c2ccc(C(=O)N(CC)CC)cc2)c2cccc(OC)c2)CC1
TGI (UACC-62 melanoma): > 25 µM
TGI (MALME-3M melanoma): > 25 µM
TGI (T-47D breast): > 25 µM
TGI (SK-OV-3 ovarian): > 25 µM
TGI (786-0 renal): > 25 µM
TGI (CAKI-1 renal): > 25 µM
TGI (ACHN renal): > 25 µM
TGI (SK-MEL-2 melanoma): > 25 µM
TGI (PC-3 prostate): > 25 µM
TGI (HT29 colon): > 25 µM
TGI (HCT-116 colon): > 25 µM
TGI (OVCAR-5 ovarian): > 25 µM
TGI (HOP-92 NSCLC): > 25 µM
TGI (MDA-MB-231 breast): > 25 µM
TGI (UO-31 renal): > 25 µM
TGI (NCI-H226 lung): > 25 µM
TGI (SK-MEL-28 melanoma): > 25 µM
TGI (SF-539 CNS): > 25 µM
TGI (U251 CNS): > 25 µM
TGI (OVCAR-8 ovarian): > 25 µM
TGI (SR leukemia): > 25 µM
TGI (NCI/ADR-RES ovarian): > 25 µM
TGI (MDA-MB-435): > 25 µM
TGI (IGROV1 ovarian): > 25 µM
TGI (HOP-62 NSCLC): > 25 µM
TGI (SNB-19 CNS): > 25 µM
TGI (MOLT-4 leukemia): > 25 µM
TGI (RPMI-8226 leukemia): > 25 µM
TGI (SN12C renal): > 25 µM
TGI (MDA-N): > 25 µM
TGI (SK-MEL-5 melanoma): > 25 µM
TGI (HL-60(TB) leukemia): > 25 µM
TGI (EKVX NSCLC): > 25 µM
TGI (COLO 205 colon): > 25 µM
TGI (SF-295 CNS): > 25 µM
TGI (OVCAR-4 ovarian): > 25 µM
TGI (SF-268 CNS): > 25 µM
TGI (HS 578T breast): > 25 µM
TGI (KM12 colon): > 25 µM
TGI (A498 renal): > 25 µM
TGI (HCT-15 colon): > 25 µM
TGI (NCI-H23 lung): > 25 µM
TGI (DU-145 prostate): > 25 µM
TGI (A549 NSCLC): > 25 µM
TGI (M14 melanoma): > 25 µM
TGI (MCF7 breast): > 25 µM
TGI (OVCAR-3 ovarian): > 25 µM
TGI (SW-620 colon): > 25 µM
TGI (BT-549 breast): > 25 µM
TGI (NCI-H522 lung): > 25 µM
